This is an account of results in patent US20240002391A1, “4-ALKOXYPYRROLO[2,1-F][1,2,4]TRIAZINES AND PREPARATION AND USES THEREOF” (BioSplice Therapeutics, Inc., priority 2022, published 2024).

The assay has as its target recombinant DYRK1A kinase (Homo sapiens (Human), UniProt Q13627). As to the kind of experiment: DYRK1A kinase assay (Ser/Thr 18 peptide Z-lyte FRET). It counts as biochemical. The following applies: DYRK1A kinase activity, Z-lyte Ser/Thr 18 peptide, 15 μM ATP; method text calls the value IC50; read-out: EC50 (the source's name). How it is done: Representative compounds were screened using the assay procedure for DYRK1A kinase activity as described below.
Each compound was dissolved in DMSO as a 10 mM stock and used to prepare compound source plates. Serial dilution (1:3, 11-point dose-response curves from 10 μM to 0.00016 μM) and compound transfer was performed using the ECHO 550 (Labcyte, Sunnyvale, CA) into 1536-well black-walled round bottom plates (Coming).
The DYRK1A kinase assay was run using the Ser/Thr 18 peptide Z-lyte assay kit according to manufacturer's instructions (Life Technologies-a Division of Thermo-Fisher). This is a non-radioactive assay using fluorescence resonance energy transfer (FRET) between coumarin and fluorescein to detect kinase activity which is represented as a ratio of coumarin emission/fluorescein emission.
Briefly, recombinant DYRK1A kinase, ATP and Ser/Thr peptide 18 were prepared in 1X Kinase buffer to final concentrations of 0.25 μg/mL, 15 μM, and 4 μM respectively. The mixture was allowed to incubate with the representative compounds for one hour at room temperature. All reactions were performed in duplicate. Unphosphorylated (“0% Control”) and phosphorylated (“100% control”) forms of Ser/Thr 18 served as control reactions. Additionally, an 11-point dose-response curve of Staurosporine (luM top) was run to serve as a positive compound control.
After incubation, Development Reagent A was diluted in Development Buffer then added to the reaction and allowed to further incubate for one hour at room temperature. The plate was read at Ex 400 Em 455 to detect the coumarin signal and Ex 400 Em 520 to measure the signal (EnVision Multilabel Plate Reader, PerkinElmer).
The Emission ratio (Em) was calculated as a ratio of the coumarin (C) emission signal (at 445 nm)/Fluorescein (F) emission signal (at 520 nm). The percent phosphorylation was then calculated using the following formula: [1−((Em ratio X F100%)-C100%)/((C0%-C100%) +(Em ratio X (F100%−F0%)))]. Dose-response curves were generated, and inhibitory concentration (IC50) values were calculated using non-linear regression curve fit in the Dotmatics' Studies Software (Bishops Stortford, UK).
As for `COc1nc(N[C@H]2CC[C@]3(CCO3)CC2)nn2ccc(-c3cnc4nccn4c3)c12` [Compound 274, 5-(Imidazo[1,2-a]pyrimidin-6-yl)-4-methoxy-N-((4s,7s)-1-oxaspiro[3.5]nonan-7-yl)pyrrolo[2,1-f][1,2,4]triazin-2-amine], the IC50 was determined as 1 nM.

For the compound `COc1nc(N[C@H]2CCNC[C@H]2F)nn2ccc(-c3ccn4nccc4c3)c12` [Compound 30, N-((3R,4S)-3-Fluoropiperidin-4-yl)-4-methoxy-5-(pyrazolo[1,5-a]pyridin-5-yl)pyrrolo[2,1-f][1,2,4]triazin-2-amine], the IC50 is 22.1 nM.

As for `COc1nc(NC2CC3(CCN(C(C)=O)CC3)C2)nn2ccc(-c3ccc4nccnc4c3)c12` [Compound 386, 1-(2-((4-Methoxy-5-(quinoxalin-6-yl)pyrrolo[2,1-f][1,2,4]triazin-2-yl)amino)-7-azaspiro[3.5]nonan-7-yl)ethan-1-one], the IC50 came out at 0.9 nM.

For the compound `Cc1nc2ccc(-c3ccn4nc(N[C@H]5CC[C@](C)(O)CC5)nc(OC5COC5)c34)cc2n1CC(F)F` [Compound 508, (1r,4r)-4-((5-(1-(2,2-Difluoroethyl)-2-methyl-1H-benzo[d]imidazol-6-yl)-4-(oxetan-3-yloxy)pyrrolo[2,1-f][1,2,4]triazin-2-yl)amino)-1-methylcyclohexan-1-ol], the IC50 is 24.3 nM.

For `COc1nc(N[C@H]2CN(C3COC3)C[C@H]2F)nn2ccc(-c3ccc4nc(C)n(CC(F)F)c4c3)c12` [Compound 505, 5-(1-(2,2-Difluoroethyl)-2-methyl-1H-benzo[d]imidazol-6-yl)-N-((3S,4R)-4-fluoro-1-(oxetan-3-yl)pyrrolidin-3-yl)-4-methoxypyrrolo[2,1-f][1,2,4]triazin-2-amine], the IC50 turned out to be 3.8 nM.

With `COc1nc(N[C@H]2CN(C)C[C@H]2F)nn2ccc(-c3ccc4nc(C)n(CC(F)F)c4c3)c12` [Compound 113, 5-(1-(2,2-Difluoroethyl)-2-methyl-1H-benzo[d]imidazol-6-yl)-N-((3S,4R)-4-fluoro-1-methylpyrrolidin-3-yl)-4-methoxypyrrolo[2,1-f][1,2,4]triazin-2-amine], the IC50 was 3.3 nM.

On to `COc1nc(N[C@H]2C[C@@H](OCCO)C2)nn2ccc(-c3ccc4nnn(CC(F)F)c4c3)c12` [Compound 699, 2-(cis-3-((5-(1-(2,2-Difluoroethyl)-1H-benzo[d][1,2,3]triazol-6-yl)-4-methoxypyrrolo[2,1-f][1,2,4]triazin-2-yl)amino)cyclobutoxy)ethan-1-ol], for which the IC50 was found to be 1.4 nM.

For `COc1nc(N[C@H]2CCN(CC(C)(C)C#N)C[C@H]2F)nn2ccc(-c3ccc4nnn(CC(F)F)c4c3)c12` [Compound 757, 3-((3R,4S)-4-((5-(1-(2,2-Difluoroethyl)-1H-benzo[d][1,2,3]triazol-6-yl)-4-methoxypyrrolo[2,1-f][1,2,4]triazin-2-yl)amino)-3-fluoropiperidin-1-yl)-2,2-dimethylpropanenitrile], the IC50 was 36.7 nM.

`COc1nc(N[C@H]2CCN(C3COC3)C[C@H]2F)nn2ccc(-c3cc(F)c4nnn(CC(F)F)c4c3)c12` [Compound 818, 5-(1-(2,2-Difluoroethyl)-4-fluoro-1H-benzo[d][1,2,3]triazol-6-yl)-N-((3R,4S)-3-fluoro-1-(oxetan-3-yl)piperidin-4-yl)-4-methoxypyrrolo[2,1-f][1,2,4]triazin-2-amine]: the IC50 was 0.8 nM.

For `COc1nc(NCC(C)(C)C#N)nn2ccc(-c3cnc4nccn4c3)c12` [Compound 1146, 3-((5-(Imidazo[1,2-a]pyrimidin-6-yl)-4-methoxypyrrolo[2,1-f][1,2,4]triazin-2-yl)amino)-2,2-dimethylpropanenitrile], the IC50 is 2 nM.

As to `COc1nc(N[C@H]2C[C@@](C)(O)C2)nn2ccc(-c3cc(F)c4nc(C)n(CC(F)F)c4c3)c12` [Compound 509, cis-3-((5-(1-(2,2-Difluoroethyl)-4-fluoro-2-methyl-1H-benzo[d]imidazol-6-yl)-4-methoxypyrrolo[2,1-f][1,2,4]triazin-2-yl)amino)-1-methylcyclobutan-1-ol], the IC50 was determined as 1.4 nM.

On to `COc1nc(N[C@@H]2CCN(C)CC2(F)F)nn2ccc(-c3cc(F)c4nccn4c3)c12` [Compound 434, (R)—N-(3,3-Difluoro-1-methylpiperidin-4-yl)-5-(8-fluoroimidazo[1,2-a]pyridin-6-yl)-4-methoxypyrrolo[2,1-f][1,2,4]triazin-2-amine], for which the IC50 was determined as 4.9 nM.

Regarding `COc1nc(N[C@H]2CC[C@](C)(O)CC2)nn2ccc(-c3cc4cnccc4[nH]3)c12` [Compound 282, trans-4-((4-Methoxy-5-(1H-pyrrolo[3,2-c]pyridin-2-yl)pyrrolo[2,1-f][1,2,4]triazin-2-yl)amino)-1-methylcyclohexan-1-ol], the IC50 was found to be 13.6 nM.

`CNC(=O)c1cnn2ccc(-c3ccn4nc(N[C@H]5CC[C@@H](OC)CC5)nc(OC)c34)cc12` [Compound 399, 5-(4-Methoxy-2-((cis-4-methoxycyclohexyl)amino)pyrrolo[2,1-f][1,2,4]triazin-5-yl)-N-methylpyrazolo[1,5-a]pyridine-3-carboxamide]: the IC50 is 3.5 nM.

Regarding `COc1nc(N[C@H]2C[C@@](C)(NC(C)=O)C2)nn2ccc(-c3ccc4ncnn4c3)c12` [Compound 191, N-(cis-3-((5-([1,2,4]Triazolo[1,5-a]pyridin-6-yl)-4-methoxypyrrolo[2,1-f][1,2,4]triazin-2-yl)amino)-1-methylcyclobutyl)acetamide], the IC50 was found to be 5.3 nM.

Take `COc1nc(NC2CCC3(CC2)COC3)nn2ccc(-c3ccc4nccnc4c3)c12` [Compound 390, 4-Methoxy-5-(quinoxalin-6-yl)-N-(2-oxaspiro[3.5]nonan-7-yl)pyrrolo[2,1-f][1,2,4]triazin-2-amine]: the IC50 stood at 3 nM.

In the case of `COc1nc(N[C@@H]2CCN(C)CC2(F)F)nn2ccc(-c3ccc4nc(C)n(CC(F)F)c4c3)c12` [Compound 138, (R)—N-(3,3-Difluoro-1-methylpiperidin-4-yl)-5-(1-(2,2-difluoroethyl)-2-methyl-1H-benzo[d]imidazol-6-yl)-4-methoxypyrrolo[2,1-f][1,2,4]triazin-2-amine], the IC50 is 4.3 nM.

As to `COc1nc(N[C@H](C)C2CCOCC2)nn2ccc(-c3cnc4nccn4c3)c12` [Compound 1147, (R)-5-(Imidazo[1,2-a]pyrimidin-6-yl)-4-methoxy-N-(1-(tetrahydro-2H-pyran-4-yl)ethyl)pyrrolo[2,1-f][1,2,4]triazin-2-amine], the IC50 stood at 2.7 nM.

For `COc1nc(N[C@H]2CC[C@](C)(O)CC2)nn2cc(F)c(-c3ccc4ncnn4c3)c12` [Compound 589, (1r,4r)-4-((5-([1,2,4]Triazolo[1,5-a]pyridin-6-yl)-6-fluoro-4-methoxypyrrolo-[2,1-f][1,2,4]triazin-2-yl)amino)-1-methylcyclohexan-1-ol], the IC50 stood at 0.9 nM.

Consider `COc1nc(N[C@@H]2CCN(CCO)CC2(F)F)nn2ccc(-c3cc(F)c4nc(C)n(CC(F)F)c4c3)c12` [Compound 525, (R)-2-(4-((5-(1-(2,2-Difluoroethyl)-4-fluoro-2-methyl-1H-benzo[d]imidazol-6-yl)-4-methoxypyrrolo[2,1-f][1,2,4]triazin-2-yl)amino)-3,3-difluoropiperidin-1-yl)ethan-1-ol], for which the IC50 is 2.4 nM.
